{"source": "patent US20230416341A1", "about": "“IMPROVED THROMBIN INHIBITORS FOR TREATMENT OF THROMBOEMBOLIC CONDITIONS” (priority 2020, published 2023)", "test": "Blood loss after 3 mm tail transection (haemoglobin assay)", "details": "mouse, in vivo, 10 mg/kg, 30 min", "text": "“Blood loss” generally refers excessive bleeding or haemorrhage. Minor haemorrhage refers to clinically insignificant bleeding. Major haemorrhage refers to internal bleeding or when the individual loses sufficient amounts of blood to cause a haemodynamic instability. Blood loss may be measured clinically by measuring blood pressure, pulse rate, haemoglobin levels, urea levels in the blood, and/or by imaging. Indicators of major haemorrhage will be clear to a person skilled in the art. Blood loss may also be determined experimentally for example by measuring the total volume of blood collected from a mouse tail transection and may be quantified by measurement of haemoglobin (mg/dL) present in the total volume of blood lost during a specified observation period (for example 20 minutes). Total haemoglobin may be assessed via a commercially available Haemoglobin colorimetric assay kit (Cat #MAK115; Sigma-Aldrich).\nBlood loss was assessed by carrying out a 3 mm tail transection (lop) in rodents, to assess blood loss following compound/drug administration. Tail lop was performed using a standard transection 3 mm from the tip of the tail (Schoenwaelder et al, 2011, Blood). The tail was immediately immersed in pre-warmed sterile saline (37° C.) and time to bleeding cessation and rebleeding events monitored for 30 minutes following transection. […]", "data": [{"smiles": "CC1CNc2c(cccc2S(=O)(=O)N[C@@H](CCCNC(=N)N)C(=O)N2CC[C@@H](C)C[C@@H]2C(=O)O)C1", "note": "(stereo partly shown) [argatroban]", "values": [{"measurement": "blood loss (haemoglobin)", "value": "over 2000 mg/dL"}]}]}
